Data published in ChEMBL document CHEMBL4483862, “Open-source discovery of chemical leads for next-generation chemoprotective antimalarials” (2018).

Tested on: Plasmodium berghei
Assay: Luciferase/luciferin-expressing antifolate-resistant parasites were used to infect a culture of HepG2 cells that were pre-incubated with compounds. Infected hepatocytes emit light due to the luciferase reaction. Assay results are presented as the percent inhibition of light emission compared to control. […]
Format: functional
Settings: sporozoite; for IC90: read-out: LUCIFERASE INFECTION ASSAY - IC90

O=C(NCc1ccc(Oc2ccc(F)cc2)cc1)C1Cc2ccccc2O1 (stereo not given)
IC50 (HEPG2TOX_HILL_SLOPE 1.58, HEPG2TOX_R_SQUARED 0.911, PBLUC_HILL_SLOPE 12.2, PBLUC_R_SQUARED 0.351, read-out: LUCIFERASE INFECTION ASSAY - IC50): 3.21 µM | IC90: 3.84 µM

COc1cn(-c2ccccc2)nc1C(=O)N1CCc2ccccc21
IC50 (HEPG2TOX_HILL_SLOPE 1.58, HEPG2TOX_R_SQUARED 0.907, PBLUC_HILL_SLOPE 2.39, PBLUC_R_SQUARED 0.888, read-out: LUCIFERASE INFECTION ASSAY - IC50): 0.0972 µM | IC90: 0.243 µM

CN(C)c1ccc(-c2cc(Nc3cccc(OCc4ccccc4)c3)ncn2)cc1
IC50 (HEPG2TOX_HILL_SLOPE 1.6, HEPG2TOX_R_SQUARED 0.897, PBLUC_HILL_SLOPE 1.97, PBLUC_R_SQUARED 0.838, read-out: LUCIFERASE INFECTION ASSAY - IC50): 0.526 µM | IC90: 1.61 µM

COc1ccccc1-c1ccc2ncc(-c3cccc(NC(C)=O)c3)n2n1
IC50 (HEPG2TOX_HILL_SLOPE 1.56, HEPG2TOX_R_SQUARED 0.888, PBLUC_HILL_SLOPE 1.15, PBLUC_R_SQUARED 0.442, read-out: LUCIFERASE INFECTION ASSAY - IC50): 4.22 µM | IC90: > 10 µM

O=C(NCCO)c1cccc(-c2ccc3ncc(-c4cccnc4)n3n2)c1
IC50 (HEPG2TOX_HILL_SLOPE 1.56, HEPG2TOX_R_SQUARED 0.733, PBLUC_HILL_SLOPE 4.25, PBLUC_R_SQUARED 0.42, read-out: LUCIFERASE INFECTION ASSAY - IC50): 2.34 µM | IC90: 3.93 µM

COC1CC(O[C@H]2CC[C@]3(C)C4CC[C@]5(C)[C@@H](C6=CC(=O)OC6)CC[C@]5(O)[C@@H]4CC[C@]3(O)C2)OC(C)C1O (stereo not given in full)
IC50 (HEPG2TOX_HILL_SLOPE 1.6, HEPG2TOX_R_SQUARED 0.898, PBLUC_HILL_SLOPE 2.36, PBLUC_R_SQUARED 0.616, read-out: LUCIFERASE INFECTION ASSAY - IC50): 0.0698 µM | IC90: 0.177 µM

CNC(=O)c1cccc(-c2ccc3ncc(-c4cccc(C(F)(F)F)c4)n3n2)c1
IC50 (HEPG2TOX_HILL_SLOPE 1.58, HEPG2TOX_R_SQUARED 0.903, PBLUC_HILL_SLOPE 3.01, PBLUC_R_SQUARED 0.663, read-out: LUCIFERASE INFECTION ASSAY - IC50): 1.42 µM | IC90: 2.95 µM

O=C(NCc1ccc(N2CCCC2=O)cc1)c1cccnc1OCC(F)(F)F
IC50 (HEPG2TOX_HILL_SLOPE 1.59, HEPG2TOX_R_SQUARED 0.969, PBLUC_HILL_SLOPE 1.45, PBLUC_R_SQUARED 0.646, read-out: LUCIFERASE INFECTION ASSAY - IC50): 0.899 µM | IC90: 4.11 µM

COc1cc(C2CC(=O)c3cn[nH]c3C2)cc(OC)c1OC (stereo not given)
IC50 (HEPG2TOX_HILL_SLOPE 1.57, HEPG2TOX_R_SQUARED 0.775, PBLUC_HILL_SLOPE 1.9, PBLUC_R_SQUARED 0.199, read-out: LUCIFERASE INFECTION ASSAY - IC50): 5.83 µM | IC90: > 10.9 µM

COc1cc(Nc2cncc(-c3ccc(N)cc3)n2)cc(OC)c1OC
IC50 (HEPG2TOX_HILL_SLOPE 1.6, HEPG2TOX_R_SQUARED 0.917, PBLUC_HILL_SLOPE 3.36, PBLUC_R_SQUARED 0.719, read-out: LUCIFERASE INFECTION ASSAY - IC50): 0.955 µM | IC90: 1.84 µM

CC(C)c1ccc(Nc2nccc3nc(-c4ccc(F)c(F)c4)[nH]c23)cc1
IC50 (HEPG2TOX_HILL_SLOPE 1.58, HEPG2TOX_R_SQUARED 0.81, PBLUC_HILL_SLOPE 0.658, PBLUC_R_SQUARED 0.852, read-out: LUCIFERASE INFECTION ASSAY - IC50): 0.969 µM | IC90: > 10 µM

C[C@@H]1OC(O[C@H]2C[C@@H](O)[C@]3(CO)[C@@H]4C(CC[C@]3(O)C2)[C@@]2(O)CC[C@H](C3=CC(=O)OC3)[C@@]2(C)C[C@H]4O)[C@H](O)[C@H](O)[C@H]1O (stereo not given in full)
IC50 (HEPG2TOX_HILL_SLOPE 1.56, HEPG2TOX_R_SQUARED 0.89, PBLUC_HILL_SLOPE 1.86, PBLUC_R_SQUARED 0.797, read-out: LUCIFERASE INFECTION ASSAY - IC50): 0.0548 µM | IC90: 0.179 µM

Cc1ccc(NS(=O)(=O)c2cccc(C(=O)OC(C)C(=O)c3cc(C)n(-c4ccc(Cl)cc4)c3C)c2)cc1 (stereo not given)
IC50 (HEPG2TOX_HILL_SLOPE 1.57, HEPG2TOX_R_SQUARED 0.97, PBLUC_HILL_SLOPE 17.7, PBLUC_R_SQUARED 0.634, read-out: LUCIFERASE INFECTION ASSAY - IC50): 3.18 µM | IC90: 3.6 µM

FC(F)(F)Oc1cccc(-c2nc3ccnc(NCCc4ccccn4)c3[nH]2)c1
IC50 (HEPG2TOX_HILL_SLOPE 1.56, HEPG2TOX_R_SQUARED 0.653, PBLUC_HILL_SLOPE 2.89, PBLUC_R_SQUARED 0.498, read-out: LUCIFERASE INFECTION ASSAY - IC50): 3.34 µM | IC90: 7.15 µM

COc1cccc(CN(C)S(=O)(=O)NC2CCC(C)CC2)c1 (stereo not given)
IC50 (HEPG2TOX_HILL_SLOPE 1.57, HEPG2TOX_R_SQUARED 0.723, PBLUC_HILL_SLOPE 2.26, PBLUC_R_SQUARED 0.44, read-out: LUCIFERASE INFECTION ASSAY - IC50): 7.19 µM | IC90: > 10 µM

O=C1N(Cc2ccccc2)C(=O)C2(CCN(CC3CC=CCC3)CC2)N1CCc1ccccc1 (stereo not given)
IC50 (HEPG2TOX_HILL_SLOPE 1.57, HEPG2TOX_R_SQUARED 0.788, PBLUC_HILL_SLOPE 4.98, PBLUC_R_SQUARED 0.479, read-out: LUCIFERASE INFECTION ASSAY - IC50): 4.9 µM | IC90: > 7.21 µM

O=C(Nc1ccc(N2CCOCC2)nc1)c1ccc(S(=O)(=O)N2CCCc3ccccc32)cc1
IC50 (HEPG2TOX_HILL_SLOPE 1.57, HEPG2TOX_R_SQUARED 0.865, PBLUC_HILL_SLOPE 1.66, PBLUC_R_SQUARED 0.608, read-out: LUCIFERASE INFECTION ASSAY - IC50): 2.98 µM | IC90: > 10 µM

O=C(Nc1ccc(Oc2ccccc2)cc1)c1csc(C(O)c2cccc(OC(F)(F)F)c2)n1 (stereo not given)
IC50 (HEPG2TOX_HILL_SLOPE 1.57, HEPG2TOX_R_SQUARED 0.929, PBLUC_HILL_SLOPE 3.6, PBLUC_R_SQUARED 0.22, read-out: LUCIFERASE INFECTION ASSAY - IC50): 2.8 µM | IC90: 5.15 µM

COc1ccc(-c2cnc3cnc(-c4ccccc4)cn23)cc1
IC50 (HEPG2TOX_HILL_SLOPE 1.56, HEPG2TOX_R_SQUARED 0.972, PBLUC_HILL_SLOPE 1.73, PBLUC_R_SQUARED 0.792, read-out: LUCIFERASE INFECTION ASSAY - IC50): 0.932 µM | IC90: 3.33 µM

Cc1nn(-c2ccccc2)c2sc(C(=O)NNc3nc(CN4CCOCC4)nc4scc(-c5ccccc5)c34)cc12
IC50 (HEPG2TOX_HILL_SLOPE 1.59, 8.29, HEPG2TOX_R_SQUARED 0.901, 0.855, PBLUC_HILL_SLOPE 12, PBLUC_R_SQUARED 0.591, read-out: LUCIFERASE INFECTION ASSAY - IC50): 8.46 µM | IC90: > 10 µM

Cc1cc(C)cc(-n2c(C)cc(C(=O)CNC(=O)NCc3ccccc3)c2C)c1
IC50 (HEPG2TOX_HILL_SLOPE 1.59, HEPG2TOX_R_SQUARED 0.958, PBLUC_HILL_SLOPE 2.43, PBLUC_R_SQUARED 0.455, read-out: LUCIFERASE INFECTION ASSAY - IC50): 1.32 µM | IC90: 3.27 µM

COc1ccccc1NC(=O)/C=c1\s/c(=C\c2cnn(-c3ccccc3)c2)c(=O)n1C
IC50 (HEPG2TOX_HILL_SLOPE 1.6, HEPG2TOX_R_SQUARED 0.888, PBLUC_HILL_SLOPE 1.61, PBLUC_R_SQUARED 0.941, read-out: LUCIFERASE INFECTION ASSAY - IC50): 0.161 µM | IC90: 0.632 µM

CC(C)(C)c1n[nH]c2c(-c3nc4ccccc4s3)c(N)nn2c1=O
IC50 (HEPG2TOX_HILL_SLOPE 1.58, HEPG2TOX_R_SQUARED 0.969, PBLUC_HILL_SLOPE 3.76, PBLUC_R_SQUARED 0.505, read-out: LUCIFERASE INFECTION ASSAY - IC50): 3.16 µM | IC90: 5.67 µM

Cc1ccc(S(=O)(=O)N2CCC[C@H]2C(=O)Nc2ccc(-c3nc4ccccc4[nH]3)cc2)cc1
IC50 (HEPG2TOX_HILL_SLOPE 1.59, HEPG2TOX_R_SQUARED 0.747, PBLUC_HILL_SLOPE 12.8, PBLUC_R_SQUARED 0.235, read-out: LUCIFERASE INFECTION ASSAY - IC50): 8.44 µM | IC90: > 10 µM

Cn1ccc2cc(-c3cn4c(-c5cccc(F)c5)cnc4cn3)ccc21
IC50 (HEPG2TOX_HILL_SLOPE 1.6, HEPG2TOX_R_SQUARED 0.918, PBLUC_HILL_SLOPE 3.4, PBLUC_R_SQUARED 0.713, read-out: LUCIFERASE INFECTION ASSAY - IC50): 1.14 µM | IC90: 2.18 µM

N#Cc1ccc(CN2CCN(CC(=O)Nc3nc(-c4c[nH]c5ccccc45)cs3)CC2)cc1
IC50 (HEPG2TOX_HILL_SLOPE 1.59, HEPG2TOX_R_SQUARED 0.927, PBLUC_HILL_SLOPE 64.1, PBLUC_R_SQUARED 0.488, read-out: LUCIFERASE INFECTION ASSAY - IC50): 3.33 µM | IC90: 3.45 µM

O=C(NNC(=O)c1sc(-c2ccco2)nc1-c1ccccc1)c1ccccn1
IC50 (HEPG2TOX_HILL_SLOPE 1.58, HEPG2TOX_R_SQUARED 0.893, PBLUC_HILL_SLOPE 37.6, PBLUC_R_SQUARED 0.722, read-out: LUCIFERASE INFECTION ASSAY - IC50): 3.14 µM | IC90: 3.33 µM

Nc1nccnc1C(=O)NNC(=O)COc1ccccc1Cc1ccccc1
IC50 (HEPG2TOX_HILL_SLOPE 1.59, HEPG2TOX_R_SQUARED 0.794, PBLUC_HILL_SLOPE 15.4, PBLUC_R_SQUARED 0.41, read-out: LUCIFERASE INFECTION ASSAY - IC50): 3.18 µM | IC90: 3.67 µM

Cn1c(Nc2ccccc2)nc2cnc(-c3cccc4ccccc34)cc21
IC50 (HEPG2TOX_HILL_SLOPE 1.56, HEPG2TOX_R_SQUARED 0.963, PBLUC_HILL_SLOPE 1.41, PBLUC_R_SQUARED 0.827, read-out: LUCIFERASE INFECTION ASSAY - IC50): 0.98 µM | IC90: 4.66 µM

COc1cc(/C=C/C(=O)Nc2ccc3c(c2)nc2n3CCCCC2)ccc1OS(=O)(=O)c1ccc(C)cc1
IC50 (HEPG2TOX_HILL_SLOPE 1.59, HEPG2TOX_R_SQUARED 0.591, PBLUC_HILL_SLOPE 1.96, PBLUC_R_SQUARED 0.277, read-out: LUCIFERASE INFECTION ASSAY - IC50): 2.71 µM | IC90: 8.3 µM
